Assay results reported in patent US4439606A, “Antiatherosclerotic 1-piperazinecarbonyl compounds” (American Cyanamid Company, priority 1982, dated 1984).

Key:
[1] = target: T1, fatty acyl CoA:-cholesterol acyl transferase (ACAT) (Rattus norvegicus, UniProt O70536); experiment: Inhibition of enzymatic esterification of cholesterol (ACAT inhibition), rat adrenal supernatant; assay type: biochemical; details: final concentration 5.2 μg./ml., 37° C., 30 minutes
T1 construct: The supernatant, containing the microsomal fraction, served as the source of the cholesterol-esterifying enzyme; from tissue; host or cells: rat adrenals, 1000 x g supernatant containing the microsomal fraction
T1 sequence (O70536 1-545): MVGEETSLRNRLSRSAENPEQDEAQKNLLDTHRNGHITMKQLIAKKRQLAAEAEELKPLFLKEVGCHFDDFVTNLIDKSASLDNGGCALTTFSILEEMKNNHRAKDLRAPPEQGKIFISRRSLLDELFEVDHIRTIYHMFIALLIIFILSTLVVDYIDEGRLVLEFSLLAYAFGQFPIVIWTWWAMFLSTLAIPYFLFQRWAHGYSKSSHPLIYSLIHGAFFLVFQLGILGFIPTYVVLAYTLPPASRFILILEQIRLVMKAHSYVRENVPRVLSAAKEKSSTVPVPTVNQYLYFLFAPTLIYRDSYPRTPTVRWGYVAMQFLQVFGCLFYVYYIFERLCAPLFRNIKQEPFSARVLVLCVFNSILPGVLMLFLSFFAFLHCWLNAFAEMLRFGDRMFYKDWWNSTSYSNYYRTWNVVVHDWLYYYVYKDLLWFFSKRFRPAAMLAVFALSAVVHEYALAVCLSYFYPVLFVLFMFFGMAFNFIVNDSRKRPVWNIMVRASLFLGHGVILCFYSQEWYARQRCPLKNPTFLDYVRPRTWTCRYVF
Experimental: The compounds of the present invention were tested for their ability to inhibit the enzymatic esterification of cholesterol according to the procedure of Hashimoto, et al., Life Sci., 12(Part II), 1-12 (1973).
Rat adrenals were homogenized in 0.2 M monobasic potassium phosphate buffer, pH 7.4, and centrifuged at 1000 times gravity for 15 minutes at 5° C. The supernatant, containing the microsomal fraction, served as the source of the cholesterol-esterifying enzyme, fatty acyl CoA:-cholesterol acyl transferase (ACAT). A mixture comprising 50 parts of adrenal supernatant, 10 parts of bovine serum albumin (50 mg./ml.), 3 parts of test compound (final concentration 5.2 μg./ml.) and 500 parts of buffer were preincubated at 37° C. for 10 minutes, following which 20 parts of oleoyl […] were added and the final mixture was incubated at 37° C. for 30 minutes. A control mixture, omitting the test compound, was prepared and treated in the same manner. The lipids from the incubation mixture were extracted into an organic solvent and separated by thin-layer chromatography. The cholesterol ester fraction was counted in a scintillation counter. A statistically significant inhibition of the ACAT enzyme is the criterion for activity.

[2] = tested on: aortic sterol content; experiment: Decrease of aortic sterol content without effecting serum sterol in cholesterol-fed cockerels; assay type: in vivo, Day-old Cockerels; design: key: Active: Compounds which statistically decrease the aortic sterol content without having an effect on serum sterol are considered to be active; details: 525 mg. test compound and 20 g. cholesterol per kg. of diet, 14 days
Experimental: The compounds were further tested for their ability to decrease aortic sterol content without effecting serum sterol.
Day-old Cockerels were placed on diets consisting of pullet starter mash supplemented with either 20 g. cholesterol (control group) or 20 g. cholesterol and 525 mg. test compound (drug-treated group) per kg. of diet.
For the control diet, 20 g. of cholesterol was dissolved in 200 ml. of chloroform, mixed into one kg. of pullet starter mash and then the choloroform was removed by evaporation.
For the drug-treatment group, 525 mg. of the test compound was dissolved in 100 ml. of chloroform, mixed into a diet prepared as described above and then the chloroform was evaporated.
The cockerels were housed three per cage and given water and their respective diet ad libitum for 14 days. Blood was collected by cardiac puncture and the serum was saponified [Trinder, P., Analyst, 77, 321 (1952)] and extracted and the cholesterol content determinted [Zlatkis, A., et al., J. Lab Clin Med., 41 486 (1953)]. The aortae were removed, cleaned of adventitial tissue and the sterol content determined according to the above procedures. Compounds which statistically decrease the aortic sterol content without having an effect on serum sterol are considered to be active.

[3] = tested on: serum cholesterol and triglyceride; experiment: Lowering of serum lipid levels, oral administration in diet to rats; assay type: in vivo, male rats COBS, CD, SD strain; details: 0.1% of test compound by weight in diet, 5 days, vs control rats
Experimental: The compounds were also tested for their ability to lower lipid levels in mammals. The compounds were administered orally admixed with diet to groups of four male rats COBS, CD, SD strain from Charles River Breeding Laboratories, Inc., Wilmington, Mass. A control group of eight rats was maintained on the diet alone; test groups were maintained on the diet plus 0.1% of test compound by weight. After 5 days treatment, serum cholesterol and triglyceride concentrations were determined by direct enzymatic procedures using a Centrifichem® System 400 autoanalyzer (Union Carbide Co.). Cholesterol concentrations were determined by the combined cholesterol esterasecholesterol oxidase procedure of Roeschlau, et al., Zeit. Klin. Chem. Klin. Biochem., 12, 226 (1974). Triglycerides were determined by the combined method of lipase catalyzed hydrolysis of triglycerides to glycerol and free fatty acids [Bucolo, G. and David, H., Clin. Chem., 19, 476 (1973) and Wahlefeld, A. W., in "Methods of Enzymatic Analysis," Vol, 4, Bergmeyer, H. D., Editor, Academic Press, New York, N.Y. (1974), pp. 1831-1835] and the enzymatic oxidation of the glycerol which leads to the production of colored formazan [Stavropoulos, W. S. and Crouch, R. D., Clin. Chem., 20, No. 7, 857 (1974)]. […] The compounds are considered active if they produce a statistically significant lowering of either sterol or triglycerides.

Row | SMILES | inhibition at 5.2 µg/mL [1] | Result (decrease of aortic sterol content without effect on serum sterol) [2] | % Lowering of Serum Triglycerides [3] | % Lowering of Serum Sterol [3]
1 | O=C(Cc1ccc([N+](=O)[O-])cc1)N1CCN(c2cnccn2)CC1 [1-(p-Nitrophenylacetyl)-4-(2-pyrazinyl)piperazine] | 36.4% | Active |  | 
2 | Cc1ccc(CC(=O)N2CCN(c3cnccn3)CC2)cc1 [1-(2-Pyrazinyl)-4-(p-tolylacetyl)piperazine] |  | Active | 49% | 
3 | O=C(Nc1c(Cl)cccc1Cl)N1CCN(c2cnccn2)CC1 [2',6'-Dichloro-4-(2-pyrazinyl)-1-piperazinecarboxanilide] |  | Active |  | 
4 | O=C(CCCCCc1ccc(Cl)cc1)N1CCN(c2cnccn2)CC1 [1-[6-(p-Chlorophenyl)hexanoyl]-4-(2-pyrazinyl)piperazine] | 68.9% |  | 30% | 
5 | O=C(N1CCN(c2cnccn2)CC1)C(F)(F)C(F)(F)C(F)(F)C(F)(F)C(F)(F)C(F)(F)C(F)(F)F [1-(Pentadecafluorooctanoyl)-4-(2-pyrazinyl)piperazine] | 39% |  | 74% | 47%
6 | Cc1ccccc1CC(=O)N1CCN(c2cnccn2)CC1 [1-(o-Methylphenylacetyl)-4-(2-pyrazinyl)piperazine] |  | Active |  | 
7 | O=C(Cc1ccccc1)N1CCN(c2ccccc2)CC1 [1-phenyl-4-phenylacetylpiperazine, 1-Phenyl-4-phenylacetylpiperazine] | 34.6% | Active |  | 
8 | O=C(Cc1ccc(Cl)cc1Cl)N1CCN(c2cnccn2)CC1 [1-(2,4-Dichlorophenylacetyl)-4-(2-pyrazinyl)piperazine] | 32.2% |  | 44% | 
9 | O=C(Cc1ccc(Cl)c(Cl)c1)N1CCN(c2cnccn2)CC1 [1-(3,4-Dichlorophenylacetyl)-4-(2-pyrazinyl)piperazine] | 38.3% | Active |  | 
10 | CC(C)(Oc1ccc(Cl)cc1)C(=O)N1CCN(c2cnccn2)CC1 [1-[2-(p-Chlorophenoxy)-2-methylpropionyl]-4-(2-pyrazinyl)piperazine] | 54.1% |  | 42% | 
11 | O=C(CCCCC(=O)N1CCN(c2cnccn2)CC1)c1ccc(Cl)cc1 [1-[5-(p-Chlorobenzoyl)valeryl]-4-(2-pyrazinyl)piperazine] | 47.4% |  | 45% | 
12 | O=C(Cc1ccccc1)N1CCN(c2ccc3ccccc3n2)CC1 [1-phenylacetyl-4-(2-quinolyl)piperazine, 1-Phenylacetyl-4-(2-quinolyl)piperazine] | 89.7% |  | 53% | 69%
13 | CC(Oc1ccccc1)C(=O)N1CCN(c2cnccn2)CC1 (stereo not drawn) [1-(2-Phenoxypropionyl)-4-(2-pyrazinyl)piperazine] | 30.5% |  | 62% | 
14 | O=C(c1ccccc1C(F)(F)F)N1CCN(c2cnccn2)CC1 [1-(2-Pyrazinyl)-4-(α,α,α-trifluoro-o-toluoyl)piperazine] |  | Active |  | 
